# Legend:
# [1] = system: bone marrow-derived macrophages; assay: Bone marrow-derived macrophages treated in vitro with or without LPS; settings: for macrophage viability (MTT dye reduction): presence or absence of LPS
# Procedure: Identification of how risperidone alters pro-inflammatory and/or anti-inflammatory immune responses is necessary.
# Studies were conducted herein to evaluate the regulation of macrophage proinflammatory responses in vitro.
# prolactin = assay: Serum prolactin in treated mice; assay type: in vivo; settings: for serum prolactin: immunized and unimmunized mice
# [2] = Body weight of treated normal and immunized mice; settings: for body weight in normal mice: normal (unimmunized) mice
# α2-adrenergic receptors = settings: cited from earlier work
# al-adrenergic receptors = settings: cited from earlier work
# cholinergic receptors = settings: cited from earlier work
# EAE [3] = assay: EAE model in BALB/c mice immunized with PLP peptide
# [4] = Pajonk, 2004, cited from earlier work
# [5] = biological target: dopaminergic D2 receptors (Homo sapiens, UniProt P14416); settings: cited from earlier work
# dopaminergic D2 receptors, sequence (P14416 whole entry): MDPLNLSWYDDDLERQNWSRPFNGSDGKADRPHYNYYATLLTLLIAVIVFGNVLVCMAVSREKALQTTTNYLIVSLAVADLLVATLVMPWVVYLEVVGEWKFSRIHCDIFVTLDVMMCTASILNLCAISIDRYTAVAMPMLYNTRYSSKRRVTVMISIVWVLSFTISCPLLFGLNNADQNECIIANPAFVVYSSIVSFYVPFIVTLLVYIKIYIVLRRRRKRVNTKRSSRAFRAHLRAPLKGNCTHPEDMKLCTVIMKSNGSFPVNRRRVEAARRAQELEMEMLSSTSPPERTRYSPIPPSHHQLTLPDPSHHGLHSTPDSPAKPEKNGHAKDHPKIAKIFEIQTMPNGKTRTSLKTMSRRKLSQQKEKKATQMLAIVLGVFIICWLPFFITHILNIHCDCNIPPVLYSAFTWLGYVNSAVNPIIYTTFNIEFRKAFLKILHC
# splenocytes = assay: Cellular profile of spleen in treated mice (flow cytometry); assay type: in vivo, C57BL/6 mice
# Source text: The effect of drug treatment on antigen-specific immune responses can be determined at 8 (pre-onset), […] draining lymph node (LN) cells and splenocytes from untreated and risperidone-treated, immunized or unimmunized mice. Cytokine production in response to myelin oligodendrocyte glycoprotein antigen (MOG) can be assessed by cytokine bead assay, which measures 10 cytokines simultaneously, or ELISA, and proliferation can be measured by ^3H thymidine uptake. Cellular profiles in the spleen and lymph node cells can be determined by flow cytometric analysis and can include markers for helper T cells, T regulatory cells, and macrophages.
# [6] = system: splenic macrophages (F4/80+ cells); assay: Activation markers on splenic macrophages of immunized mice at peak disease (flow cytometry); assay type: in vivo, C57BL/6 mice; settings: risperidone 3 mg/kg/day
# Procedure: Studies were also conducted herein to evaluate the regulation of macrophage proinflammatory responses in vivo.
# microglia = assay: Microglial reactivity by Iba-1 expression in brains of immunized mice; assay type: in vivo
# Procedure: FIG. 9A illustrates exemplary Iba-1 expression on microglia in the cerebellum of mice. […] Tissue samples were taken at peak disease (15 days post immunization). Shown are the scores for microglia reactivity (Iba score) and disease.
# One group (risperidone d11) was immunized but only received risperidone treatment starting at day 11 (i.e. after disease onset). Scores for Iba-1 reactivity were assessed blinded and derived from a combined score for Iba intensity (0-3) and # Iba+ foci (0-3).
# Scores for Iba-1 reactivity were assessed blinded and derived from a combined score (0-6) for Iba intensity (0-3) and number of Iba+ foci (0-3). Scores for the following brain regions were combined: cerebellum, brain stem, hippocampus, and olfactory bulb (0-24).
# Scores for Iba-1 reactivity in the cerebellum were assessed blinded and derived from a combined score (0-6) for Iba intensity (0-3) and number of Iba+ foci (0-3).
# Studies were performed to assess microglial reactivity via the expression of Iba-1 (FIG. 9A-F).
# EAE [7] = system: EAE
# Procedure: FIG. 1A illustrates an exemplary treatment of C57BL/6 mice with risperidone (administered in drinking water; 3 mg/kg/day) following immunization to induce EAE with MOG (myelin oligodendrocyte glycoprotein) peptide in complete Freund's adjuvant. Disease score is based on the progressive ascending paralysis that characterizes EAE in this animal model where 0=normal and 5=complete body paralysis (i.e. moribund).
# FIG. 1B illustrates an exemplary treatment of C57BL/6 mice with risperidone (administered in drinking water; 3 mg/kg/day) following immunization to induce EAE. The data is from 4 separate and independent experiments.
# AUC was measured from days 0-26 and the results are from 4 separate and independent experiments.
# In these preliminary studies risperidone was given in the drinking water at a calculated dose of 1 or 3 mg/kg/day.
# Commonly this time period is between 13-20 days post immunization with myelin oligodendrocyte glycoprotein (50 μg/mouse) in complete Freund's adjuvant and injected i.p with pertussis toxin (200 ng/mouse) on days 0 and 2. Treatment during the “chronic” stage (when disease scores remain stable) may begin 30 days post immunization with myelin oligodendrocyte glycoprotein. For all of these studies, the optimal dose of risperidone may be used as determined by the experiments described above. […] This model is well established and has the added benefit of having many different immunological reagents available for use in the C57BL/6 system.
# [8] = system: auto-reactive T cell responses; assay: Cytokine production and T cell proliferation in response to MOG antigen or ConA, cells from treated immunized mice; assay type: cell-based, C57BL/6 mice
# Source text: (§1) Shown are the mean and standard error of the mean (n=5 mice per group).
# as §1, §1, §1, §1, §1
# FIG. 5A illustrates exemplary antigen specific (L-17 production (pg/ml) in C57BL/6 mice, which were treated with risperidone or vehicle alone, and immunized to induce EAE 40 days earlier. Shown are the mean and standard error of the mean (n=5-10 mice per group).
# FIG. 5B illustrates exemplary antigen specific interferon y production (pg/ml) in C57BL/6 mice, which were treated with risperidone or vehicle alone, and immunized to induce EAE 40 days earlier. Shown are the mean and standard error of the mean (n=5-10 mice per group).
# FIG. 5C illustrates exemplary antigen specific IL-10 production (pg/ml) in C57BL/6 mice, which were treated with risperidone or vehicle alone, and immunized to induce EAE 40 days earlier. Shown are the mean and standard error of the mean (n=5-10 mice per group).
# FIG. 5D illustrates exemplary T cell proliferation in counts per minute in immunized and normal C57BL/6 mice, which were treated with risperidone or vehicle alone. Shown are the mean and standard error of the mean (n=5-10 mice per group).
# The effect of drug […] draining lymph node (LN) cells and splenocytes from untreated and risperidone-treated, immunized or unimmunized mice. Cytokine production in response to myelin oligodendrocyte glycoprotein antigen (MOG) can be assessed by cytokine bead assay, which measures 10 cytokines simultaneously, or ELISA, and proliferation can be measured by ^3H thymidine uptake. Cellular profiles in the spleen and lymph node cells can be determined by flow cytometric analysis and can include markers for helper T cells, T regulatory cells, and macrophages.
# EAE [9] = assay: EAE model in IL-4Ra-deficient BALB/c mice; assay type: in vivo; settings: BALB/c mice deficient in IL-4Ra
# [10] = system: bone marrow-derived macrophages; settings: positive control; La Flamme, unpublished results; cited from earlier work
# [11] = 20 μg/ml risperidone or 10 μ/ml clozapine
# [12] = 20 μg/ml risperidone or 10 μ/ml clozapine, versus vehicle-treated macrophages
# [13] = chronic stage of disease, 40 days after immunization
# [14] = chronic stage, 40 days post immunization
# [15] = peak disease, 21 days post immunization
compound,measurement,setting,value
CN1CCN(C2=Nc3cc(Cl)ccc3Nc3ccccc32)CC1 [clozapine],macrophage viability (MTT dye reduction),[1]; [11],fully viable
same,serum prolactin,prolactin,not observed
same,body weight in normal mice,[2],promotes weight gain
"Cc1nc2n(c(=O)c1CCN1CCC(c3noc4cc(F)ccc34)CC1)CCCC2 [risperidone, 3-[2-[4-(6-fluoro-1,2-benzisoxazol-3-yl)-1-piperidinyl]ethyl]-6,7,8,9-tetrahydro-2-methyl-4H-pyrido[1,2-a]pyrimidin-4-one]",affinity for α2-adrenergic receptors,α2-adrenergic receptors,lower affinity
same,binding to al-adrenergic receptors,al-adrenergic receptors,binds
same,macrophage viability (MTT dye reduction),[1]; [11],fully viable
same,IL-12 production in response to LPS,[1]; [12],produce less
same,NO production in response to LPS,[1]; [12],produce less
same,IL-10 production in response to LPS,"[1]; risperidone 20 μg/ml, versus vehicle-treated macrophages",produce more
same,affinity for cholinergic receptors,cholinergic receptors,no affinity
same,% incidence,"EAE [3]; 2 independent experiments, same for vehicle group",73%
same,disease severity,"EAE [3]; oral, from one day before immunization with PLP",significantly reduced disease severity
same,maximum tolerated dose in mice,[4],unable to identify a maximum tolerated dose
same,toxicity,[4]; mice treated daily with doses up to 10 mg/kg/day for 18 months,no toxicity
same,affinity for dopaminergic D2 receptors,[5],high affinity
same,number of helper T cells (CD4+CD25−) in the spleen,splenocytes; [13],does not alter
same,number of neutrophils (Gr1+ cells) in the spleen,splenocytes; [13],reduce
same,number of regulatory T cells (CD4+CD25+ Treg) in the spleen,splenocytes; [13],enhance
same,overall immune cells in the spleen (total splenocyte numbers),"splenocytes; peak disease (day 21), risperidone 3 mg/kg/day, clozapine 30 mg/kg/day, unimmunized and immunized mice",does not result in overall loss
same,CD40 expression on splenic macrophages,[6],reduced CD40 expression
same,number of CD40-expressing splenic macrophages,[6],not reduced
same,MHC class II expression on splenic macrophages,"[6]; clozapine 30 mg/kg/day, versus vehicle-treated immunized mice",reduced MHC class II expression
same,microglial reactivity (Iba-1 expression),"microglia; immunized mice, peak disease (15 days post immunization), cerebellum, brain stem, hippocampus, olfactory bulb",greatly reduced
same,"microglial reactivity (Iba-1 expression), treatment after disease onset","microglia; treatment starting at day 11 post-immunization, assessed on day 15",reduces microglial reactivity
same,protective effect in dose-response,"EAE [7]; 3 mg/kg/day, p<0.0001 by 2-way ANOVA",significant protective effect
same,"area under the curve (AUC), total disease burden","EAE [7]; AUC of disease score, risperidone days 0-26, 4 independent experiments",reduction
same,average disease score during the chronic stage,EAE [7]; drinking water from one day before immunization,stable reduction
same,detrimental effects on the mice,"EAE [7]; risperidone 1 or 3 mg/kg/day, immunized or unimmunized mice, aside from slight weight gain",no detrimental effects
same,efficacy of higher versus lower dose,"EAE [7]; risperidone 3 vs 1 mg/kg/day, clozapine 30 vs 15 mg/kg/day",3 mg/kg/day is more effective
same,time of onset or incidence of EAE,EAE [7]; risperidone daily from the time of immunization,does not alter
same,serum prolactin (hyperprolactinemia),prolactin; BALB/c mice,develop hyperprolactinemia
same,serum/plasma prolactin (hyperprolactinemia),prolactin; IL-4Ra-deficient BALB/c mice,develop hyperprolactinemia
same,serum prolactin,prolactin,high levels of serum prolactin
same,production of IL-10 with polyclonal stimulus (ConA),[8]; 21 days post immunization,no alteration
same,production of INF-γ with polyclonal stimulus (ConA),[8]; 21 days post immunization,no alteration
same,MOG specific IFN-γ production,[8]; [14],enhance
same,MOG-specific IL-10 production,[8]; [14],no effect
same,MOG-specific IL-17 production,[8]; [14],no effect
same,MOG-specific proliferation,[8]; [14],no effect
same,production of IFN-γ in response to MOG antigen,[8]; [15],does not alter
same,production of IL-10 in response to MOG antigen,[8]; [15],significantly reduce
same,production of IL-17 in response to MOG antigen,[8]; [15],significantly reduce
same,weight loss associated with EAE,[2]; mice immunized with MOG peptide,reduce the weight loss
same,body weight in normal mice,[2],promotes weight gain
same,reduction in disease symptoms,EAE [9],do not experience a reduction in disease symptoms
same,% incidence versus vehicle,EAE [9]; 2 independent experiments,no difference in % incidence
Glatiramer acetate,pro-inflammatory (IL-12) cytokine production by LPS-stimulated macrophages,[10],reduce

# Source: patent publication US20130190299A1, “METHODS AND COMPOSITIONS FOR TREATMENT OF MULTIPLE SCLEROSIS” (Victoria Link Ltd., priority 2010, published 2013)
